What was measured:
mT2R8 = target: T1, mT2R8 (Mus musculus, UniProt Q9JKT3); test: FURA-2 [Ca2+]i imaging in HEK-293 cells expressing Gα15 and rho-mT2R8; format: cell-based; details: for [Ca2+]i response (FURA-2): 1.5 mM denatonium
T1 construct: expressed in transfected cells; host or cells: HEK-293 cells (PEAKrapid) expressing Gα15
T1 sequence (Q9JKT3 1-297): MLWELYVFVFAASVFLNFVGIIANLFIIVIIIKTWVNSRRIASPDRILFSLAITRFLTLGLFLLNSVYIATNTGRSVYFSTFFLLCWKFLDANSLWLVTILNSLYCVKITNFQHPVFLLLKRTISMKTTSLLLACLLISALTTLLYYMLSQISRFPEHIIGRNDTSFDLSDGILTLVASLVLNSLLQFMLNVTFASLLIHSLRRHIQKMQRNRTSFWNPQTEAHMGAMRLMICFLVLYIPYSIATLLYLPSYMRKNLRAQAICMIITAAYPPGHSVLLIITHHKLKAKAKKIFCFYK
Excerpt: In this system, receptor activation leads to increases in intracellular calcium [Ca2+]i, which can be monitored at the single cell level using the FURA-2 calcium-indicator dye (Tsien et al., Cell Calcium 6:145-157 (1985)). To test and optimize Gα15 coupling, two different GPCRs, a Gαi-coupled μ-opioid receptor (Reisine, Neuropharm. 34:463-472 (1995)) and a Gαq-coupled mGluR1 receptor (Masu et al., Nature 349:760-765 (1991)), were used. Transfection of these receptors into HEK-293 cell produced robust, agonist-selective, and Gα15-dependent Ca^2+ responses (FIG. 1).
A number of studies have shown that many GPCRs, in particular sensory receptors, require specific “chaperones” for maturation and targeting through the secretory pathway (Baker et al., Embo J 13:4886-4895 (1994); Dwyer et al., Cell 93:455-466 (1998)). Recently, Krautwurst et al. (Cell 95:917-926 (1998)) generated chimeric receptors consisting of the first 20 amino acids of rhodopsin and various rodent olfactory receptors. These were targeted to the plasma membrane and functioned as odorant receptors in HEK-293 cells. To determine whether rhodopsin sequences can also help target T2Rs to the plasma membra, rhodopsin-T2R chimeras (rho-T2Rs) were constructed. […] Similar results were obtained with 11 human and 16 rodent T2Rs (see below). To further enhance the level of T2R expression, rho-T2Rs were placed under the control of a strong EF-1α promoter, and introduced as episomal plasmids into modified HEK-293 cells expressing Gα15 (pEAKrapid cells).
A bridge overlap PCR extension technique was used to generate rho-T2R chimeras, which contain the first 39 amino acids of bovine rhodopsin in frame with human and rodent T2R coding sequences (Mehta and Singh, Biotechniques 26:1082-1086 (1999). All receptors were cloned into a pEAK10 mammalian expression vector (Edge Biosystems, MD). Modified HEK-293 cells (PEAK^rapid cells; Edge BioSystems, MD) were grown and maintained at 37° C. in UltraCulture medium (Bio Whittaker) supplemented with 5% fetal bovine serum, 100 μg/ml Gentamycin sulphate (Fisher), 1 μg/ml Amphotericin B and 2 mM GlutaMax I (Lifetechnologies). For transfection, cells were seeded onto matrigel coated 24-well culture plates or 35 mm recording chambers. After 24 h at 37° C., cells were washed in OptiMEM medium (Lifetechnologies) and transfected using LipofectAMINE reagent (Lifetechnologies). Transfection efficiencies were estimated by co-transfection of a GFP reporter plasmid, and were typically >70%. Immunofluoresence staining, and activity assays were performed 36-48 h after transfection.
(§1) Transfected cells were washed once in Hank's balanced salt solution with 1 mM sodium pyruvate and 10 mM HEPES, pH 7.4 (assay buffer), and loaded with 2 μM FURA-2 AM (Molecular Probes) for 1 h at room temperature. The loading solution was removed and cells were incubated in 200 μl of assay buffer for 1 h to allow the cleavage of the AM ester. […] [Ca^2+]i changes were monitored using a Nikon Diaphot 200 microscope equipped with a 10×/0.5 fluor objective with the TILL imaging system (T.I.L.L Photonics GmbH). Acquisition and analysis of the fluorescence images used TILL-Vision software. Generally, [Ca^2+]i was measured for 80-120 s by sequentially illuminating cells for 200 ms at 340 nm and 380 nm and monitoring the fluorescence emission at 510 nm using a cooled CCD camera. The F340/F380 ratio was analyzed to measure [Ca^2+]i.
Kinetics of activation and deactivation were measured using a bath perfusion system. […]

other hT2Rs = test: FURA-2 [Ca2+]i imaging in control untransfected cells or cells transfected with other hT2Rs; format: cell-based, human
Experimental: To determine whether other T2Rs are also activated by bitter compounds, 11 rhodopsin-tagged human T2R receptors were assayed by individually transfecting them into HEK-293 cells expressing Gα15. Each transfected line was tested against a battery of bitter and sweet tastants, including amino acids, peptides, and other natural and synthetic compounds.

mT2R5 (C57BL/6-allele) = target: T2, mT2R5 (C57BL/6-allele) (Mus musculus, UniProt Q9JKT4, G155D/I85V/L294R/T101A/T44I); test: FURA-2 [Ca2+]i imaging in HEK-293 cells expressing Gα15 and rho-mT2R5 from non-taster strain (C57BL/6 allele); format: cell-based
T2 construct: expressed in transfected cells; host or cells: modified HEK-293 cells (PEAKrapid) expressing Gα15
T2 sequence (Q9JKT4 1-300 T44I/I85V/T101A/G155D/L294R): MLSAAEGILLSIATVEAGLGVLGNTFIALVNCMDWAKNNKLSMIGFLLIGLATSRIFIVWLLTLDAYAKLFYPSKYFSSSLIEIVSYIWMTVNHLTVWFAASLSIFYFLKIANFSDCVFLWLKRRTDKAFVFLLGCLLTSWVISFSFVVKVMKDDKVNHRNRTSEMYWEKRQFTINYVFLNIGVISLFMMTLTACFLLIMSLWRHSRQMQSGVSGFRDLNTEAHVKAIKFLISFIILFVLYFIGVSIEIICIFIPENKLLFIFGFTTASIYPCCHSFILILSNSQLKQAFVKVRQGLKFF
Experimental: A bridge overlap PCR extension technique was used to generate rho-T2R chimeras, which contain the first 39 amino acids of bovine rhodopsin in frame with human and rodent T2R coding sequences (Mehta and Singh, Biotechniques 26:1082-1086 (1999). All receptors were cloned into a pEAK10 mammalian expression vector (Edge Biosystems, MD). Modified HEK-293 cells (PEAK^rapid cells; Edge BioSystems, MD) were grown and maintained at 37° C. in UltraCulture medium (Bio Whittaker) supplemented with 5% fetal bovine serum, 100 μg/ml Gentamycin sulphate (Fisher), 1 μg/ml Amphotericin B and 2 mM GlutaMax I (Lifetechnologies). […]
as §1, with “temperature.” for “temperature. The loading solution was removed and cells were incubated in 200 μl of assay buffer for 1 h to allow the cleavage of the AM ester.”, “[Ca^2+]i. […]” for “[Ca^2+]i.”

receptor activation (mT2R8)	[Ca2+]i response (FURA-2) (mT2R8; absence of Gα15)	[Ca2+]i response (FURA-2) (mT2R8; with Gα15)	increase in [Ca2+]i on tastant stimulation (mT2R8; concentrations as in FIG. 4 (denatonium 5 mM))	SMILES	[Ca2+]i response (other hT2Rs)	EC50 (mT2R5 (C57BL/6-allele)) [µM]	dose response compared with receptor from taster strains (mT2R5 (C57BL/6-allele))
activated	No increase in [Ca2+]i	robust Gα15 dependent responses	increase in [Ca2+]i could be induced	CC[N+](CC)(CC(=O)Nc1c(C)cccc1C)Cc1ccccc1 [denatonium]	not	–	–
–	–	–	–	C[C@@H]1C[C@@H]([C@H](O)CC2CC(=O)NC(=O)C2)C(=O)[C@@H](C)C1 [cycloheximide]	–	~2.3	shift in cycloheximide sensitivity

Source: patent US9817000B2, “Method for identifying compounds that modulate a T2R taste receptor” (The Regents of the University of California, priority 1999, dated 2017)
